Experiments:
[1] = system: Echinochloa oryzacola Vasing.; assay: Test Example 2: herbicidal activity, application during weed generation in submerged conditions (symbol A); format: in vivo; settings: Table 23; application herbicide amount 320 g/ha; grade 0-5 by criteria of Test Example 1
Summary of the method: (§1)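 Alluvial soil in pots was flooded to a 4 cm water depth and sown with a mix of the three weed species, then grown in a greenhouse at 25° C. to 30° C. At the one- to two-leaf stage, an emulsifiable formulation diluted in water to a set dose was applied to the water surface. Effects were scored visually 3 weeks later.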

Scirpus juncoides = assay: Test Example 2: herbicidal activity, application during weed generation in submerged conditions (symbol B); format: in vivo; settings: Table 23; application herbicide amount 320 g/ha; grade 0-5 by criteria of Test Example 1
Summary of the method: as §1

Monochoria vaginalis = assay: Test Example 2: herbicidal activity, application during weed generation in submerged conditions (symbol C); format: in vivo; settings: Table 23; application herbicide amount 320 g/ha; grade 0-5 by criteria of Test Example 1
Summary of the method: as §1

Digitaria ciliaris [2] = assay: Test Example 4: herbicidal effect by soil treatment (symbol F); format: in vivo; settings: application herbicide amount 320 g/ha
Description: (§2) Herbicidal Effect Test by Soil Treatment
(§3) Sterilized diluvial soil was placed in a plastic box having a length of 21 cm, a width of 13 cm, and a depth of 7 cm. Each of the seeds of Digitaria ciliaris, Setaria viridis, Echinochloa crus-galli var. crus-galli, Avena fatua, Alopecurus myosuroides, Lolium multiflorum Lam., Apera spica-venti, Abutilon theophrasti, Amaranthus retroflexus, Chenopodium album, Stellaria media, Galium spurium, Veronica persica, corn, soybean, rice, wheat, beet, and rapeseed was sowed in a spot-like manner and was covered with the soil of a thickness of about 1.5 cm. Subsequently, the emulsion agent of the compound present invention prepared in accordance with Formulation Example 2 was diluted with water so as to be a predetermined herbicide amount and the diluted emulsion agent was uniformly applied to the surface of the soil with a small-size spray. The plastic box was placed in a greenhouse of 25° C. to 30° C. to grow plant. 3 weeks later from the herbicide application, the effect to each plant was investigated in accordance with the criteria of Test Example 1.

Setaria viridis [3] = assay: Test Example 4: herbicidal effect by soil treatment (symbol G); format: in vivo; settings: application herbicide amount 320 g/ha
Description: as §2, §3

[4] = system: Echinochloa crus-galli var. crus-galli; assay: Test Example 4: herbicidal effect by soil treatment (symbol H); format: in vivo; settings: application herbicide amount 320 g/ha
Description: as §2, §3

Avena fatua [5] = assay: Test Example 4: herbicidal effect by soil treatment (symbol I); format: in vivo; settings: application herbicide amount 320 g/ha
Description: as §2, §3

Alopecurus myosuroides [6] = assay: Test Example 4: herbicidal effect by soil treatment (symbol J); format: in vivo; settings: application herbicide amount 320 g/ha
Description: as §2, §3

Lolium multiflorum Lam. [7] = assay: Test Example 4: herbicidal effect by soil treatment (symbol K); format: in vivo; settings: application herbicide amount 320 g/ha
Description: as §2, §3

Apera spica-venti [8] = assay: Test Example 4: herbicidal effect by soil treatment (symbol L); format: in vivo; settings: application herbicide amount 320 g/ha
Description: as §2, §3

Abutilon theophrasti [9] = assay: Test Example 4: herbicidal effect by soil treatment (symbol M); format: in vivo; settings: application herbicide amount 320 g/ha
Description: as §2, §3

Amaranthus retroflexus [10] = assay: Test Example 4: herbicidal effect by soil treatment (symbol N); format: in vivo; settings: application herbicide amount 320 g/ha
Description: as §2, §3

Chenopodium album [11] = assay: Test Example 4: herbicidal effect by soil treatment (symbol O); format: in vivo; settings: application herbicide amount 320 g/ha
Description: as §2, §3

Stellaria media [12] = assay: Test Example 4: herbicidal effect by soil treatment (symbol P); format: in vivo; settings: application herbicide amount 320 g/ha
Description: as §2, §3

Galium spurium = assay: Test Example 4: herbicidal effect by soil treatment (symbol Q); format: in vivo; settings: application herbicide amount 320 g/ha
Description: as §2, §3

Veronica persica [13] = assay: Test Example 4: herbicidal effect by soil treatment (symbol R); format: in vivo; settings: application herbicide amount 320 g/ha
Description: as §2, §3

corn [14] = assay: Test Example 4: effect on crop by soil treatment (symbol c); format: in vivo; settings: application herbicide amount 320 g/ha
Description: as §2
(§4) Sterilized diluvial soil was placed in a plastic box having a length of 21 cm, a width of 13 cm, and a depth of 7 cm. Each of the seeds of Digitaria ciliaris, Setaria viridis, Echinochloa crus-galli var. crus-galli, Avena fatua, Alopecurus myosuroides, Lolium multiflorum Lam., Apera spica-venti, Abutilon theophrasti, Amaranthus retroflexus, Chenopodium album, Stellaria media, Galium spurium, Veronica persica, corn, soybean, rice, wheat, beet, and rapeseed was sowed in a spot-like manner and was covered with the soil of a thickness of about 1.5 cm. […] The plastic box was placed in a greenhouse of 25° C. to 30° C. to grow plant.

soybean [15] = assay: Test Example 4: effect on crop by soil treatment (symbol d); format: in vivo; settings: application herbicide amount 320 g/ha
Description: as §2, §4

rice = assay: Test Example 4: effect on crop by soil treatment (symbol b); format: in vivo; settings: application herbicide amount 320 g/ha
Description: as §2, §4

wheat [16] = assay: Test Example 4: effect on crop by soil treatment (symbol e); format: in vivo; settings: application herbicide amount 320 g/ha
Description: as §2, §4

beet [17] = assay: Test Example 4: effect on crop by soil treatment (symbol f); format: in vivo; settings: application herbicide amount 320 g/ha
Description: as §2, §4

rapeseed [18] = assay: Test Example 4: effect on crop by soil treatment (symbol g); format: in vivo; settings: application herbicide amount 320 g/ha
Description: as §2, §4

Digitaria ciliaris [19] = assay: Test Example 5: herbicidal effect by foliage application, plastic box (symbol F); format: in vivo; settings: 320 g/ha, 3 weeks after application
Summary of the method: (§5)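 Emulsion formulation, diluted with water to the intended rate, was applied uniformly to leaves by small sprayer. Recipients were 14-day greenhouse-grown seedlings (25° C. to 30° C.). Assessment followed at 3 weeks.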

Setaria viridis [20] = assay: Test Example 5: herbicidal effect by foliage application, plastic box (symbol G); format: in vivo; settings: 320 g/ha, 3 weeks after application
Summary of the method: as §5

[21] = system: Echinochloa crus-galli var. crus-galli; assay: Test Example 5: herbicidal effect by foliage application, plastic box (symbol H); format: in vivo; settings: 320 g/ha, 3 weeks after application
Summary of the method: as §5

Avena fatua [22] = assay: Test Example 5: herbicidal effect by foliage application, plastic box (symbol I); format: in vivo; settings: 320 g/ha, 3 weeks after application
Summary of the method: as §5

Alopecurus myosuroides [23] = assay: Test Example 5: herbicidal effect by foliage application, plastic box (symbol J); format: in vivo; settings: 320 g/ha, 3 weeks after application
Summary of the method: as §5

Lolium multiflorum Lam. [24] = assay: Test Example 5: herbicidal effect by foliage application, plastic box (symbol K); format: in vivo; settings: 320 g/ha, 3 weeks after application
Summary of the method: as §5

Apera spica-venti [25] = assay: Test Example 5: herbicidal effect by foliage application, plastic box (symbol L); format: in vivo; settings: 320 g/ha, 3 weeks after application
Summary of the method: as §5

Abutilon theophrasti [26] = assay: Test Example 5: herbicidal effect by foliage application, plastic box (symbol M); format: in vivo; settings: 320 g/ha, 3 weeks after application
Summary of the method: as §5

Amaranthus retroflexus [27] = assay: Test Example 5: herbicidal effect by foliage application, plastic box (symbol N); format: in vivo; settings: 320 g/ha, 3 weeks after application
Summary of the method: as §5

Chenopodium album [28] = assay: Test Example 5: herbicidal effect by foliage application, plastic box (symbol O); format: in vivo; settings: 320 g/ha, 3 weeks after application
Summary of the method: as §5

Stellaria media [29] = assay: Test Example 5: herbicidal effect by foliage application, plastic box (symbol P); format: in vivo; settings: 320 g/ha, 3 weeks after application
Summary of the method: as §5

Veronica persica [30] = assay: Test Example 5: herbicidal effect by foliage application, plastic box (symbol R); format: in vivo; settings: 320 g/ha, 3 weeks after application
Summary of the method: as §5

corn [31] = assay: Test Example 5: effect on crop by foliage application, plastic box (symbol c); format: in vivo; settings: 320 g/ha, 3 weeks after application
Summary of the method: (§6)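 Seeds were sown in spots in sterilized diluvial soil held in a plastic box 21 cm × 13 cm × 7 cm deep, covered with about 1.5 cm of soil, and grown in a greenhouse at 25° C. to 30° C.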

soybean [32] = assay: Test Example 5: effect on crop by foliage application, plastic box (symbol d); format: in vivo; settings: 320 g/ha, 3 weeks after application
Summary of the method: as §6

rice plant = assay: Test Example 5: effect on crop by foliage application, plastic box (symbol b); format: in vivo; settings: 320 g/ha, 3 weeks after application
Summary of the method: as §6

wheat [33] = assay: Test Example 5: effect on crop by foliage application, plastic box (symbol e); format: in vivo; settings: 320 g/ha, 3 weeks after application
Summary of the method: as §6

beet [34] = assay: Test Example 5: effect on crop by foliage application, plastic box (symbol f); format: in vivo; settings: 320 g/ha, 3 weeks after application
Summary of the method: as §6

rapeseed [35] = assay: Test Example 5: effect on crop by foliage application, plastic box (symbol g); format: in vivo; settings: 320 g/ha, 3 weeks after application
Summary of the method: as §6

CON=C(C)CC1CC(OC)=C(c2c(C)cc(O)cc2C)C1=O (centres unmarked) [6-069]
melting point: 192 to 195 °C

CC(=O)CC1CC(O)=C(c2c(C)cc(C3CC3)cc2C)C1=O (centres unmarked) [7-013]
Herbicidal effect grade, A: Echinochloa oryzacola Vasing. [1]: 2 (Herbicidal ratio of 20% or higher and lower than 40%) | Herbicidal effect grade, B: Scirpus juncoides (Scirpus juncoides): 0 (Herbicidal ratio of 5% or lower (almost no effect)) | Herbicidal effect grade, C: Monochoria vaginalis (Monochoria vaginalis): 0 (Herbicidal ratio of 5% or lower (almost no effect)) | Herbicidal effect grade, F: Digitaria ciliaris (Digitaria ciliaris [2]): 3 (Herbicidal ratio of 40% or higher and lower than 70%) | Herbicidal effect grade, G: Setaria viridis (Setaria viridis [3]): 0 (Herbicidal ratio of 5% or lower (almost no effect)) | Herbicidal effect grade, H: Echinochloa crus-galli var. crus-galli [4]: 0 (Herbicidal ratio of 5% or lower (almost no effect)) | Herbicidal effect grade, I: Avena fatua (Avena fatua [5]): 0 (Herbicidal ratio of 5% or lower (almost no effect)) | Herbicidal effect grade, J: Alopecurus myosuroides (Alopecurus myosuroides [6]): 0 (Herbicidal ratio of 5% or lower (almost no effect)) | Herbicidal effect grade, K: Lolium multiflorum Lam. (Lolium multiflorum Lam. [7]): 0 (Herbicidal ratio of 5% or lower (almost no effect)) | Herbicidal effect grade, L: Apera spica-venti (Apera spica-venti [8]): 0 (Herbicidal ratio of 5% or lower (almost no effect)) | Herbicidal effect grade, M: Abutilon theophrasti (Abutilon theophrasti [9]): 0 (Herbicidal ratio of 5% or lower (almost no effect)) | Herbicidal effect grade, N: Amaranthus retroflexus (Amaranthus retroflexus [10]): 0 (Herbicidal ratio of 5% or lower (almost no effect)) | Herbicidal effect grade, O: Chenopodium album (Chenopodium album [11]): 0 (Herbicidal ratio of 5% or lower (almost no effect)) | Herbicidal effect grade, P: Stellaria media (Stellaria media [12]): 0 (Herbicidal ratio of 5% or lower (almost no effect)) | Herbicidal effect grade, Q: Galium spurium (Galium spurium): 0 (Herbicidal ratio of 5% or lower (almost no effect)) | Herbicidal effect grade, R: Veronica persica (Veronica persica [13]): 0 (Herbicidal ratio of 5% or lower (almost no effect)) | Effect on crop grade, c: corn (corn [14]): 0 (Herbicidal ratio of 5% or lower (almost no effect)) | Effect on crop grade, d: soybean (soybean [15]): 0 (Herbicidal ratio of 5% or lower (almost no effect)) | Effect on crop grade, b: directly sowed rice plant (rice): 4 (Herbicidal ratio of 70% or higher and lower than 90%) | Effect on crop grade, e: wheat (wheat [16]): 0 (Herbicidal ratio of 5% or lower (almost no effect)) | Effect on crop grade, f: beet (beet [17]): 0 (Herbicidal ratio of 5% or lower (almost no effect)) | Effect on crop grade, g: rapeseed (rapeseed [18]): 0 (Herbicidal ratio of 5% or lower (almost no effect)) | F: Digitaria ciliaris, herbicidal effect (criteria of Test Example 1) (Digitaria ciliaris [19]): 4 (Herbicidal ratio of 70% or higher and lower than 90%) | G: Setaria viridis, herbicidal effect (criteria of Test Example 1) (Setaria viridis [20]): 2 (Herbicidal ratio of 20% or higher and lower than 40%) | H: Echinochloa crus-galli var. crus-galli, herbicidal effect (criteria of Test Example 1) [21]: 1 (Herbicidal ratio of 5% or higher and lower than 20%) | I: Avena fatua, herbicidal effect (criteria of Test Example 1) (Avena fatua [22]): 1 (Herbicidal ratio of 5% or higher and lower than 20%) | J: Alopecurus myosuroides, herbicidal effect (criteria of Test Example 1) (Alopecurus myosuroides [23]): 3 (Herbicidal ratio of 40% or higher and lower than 70%) | K: Lolium multiflorum Lam., herbicidal effect (criteria of Test Example 1) (Lolium multiflorum Lam. [24]): 3 (Herbicidal ratio of 40% or higher and lower than 70%) | L: Apera spica-venti, herbicidal effect (criteria of Test Example 1) (Apera spica-venti [25]): 0 (Herbicidal ratio of 5% or lower (almost no effect)) | M: Abutilon theophrasti, herbicidal effect (criteria of Test Example 1) (Abutilon theophrasti [26]): 0 (Herbicidal ratio of 5% or lower (almost no effect)) | N: Amaranthus retroflexus, herbicidal effect (criteria of Test Example 1) (Amaranthus retroflexus [27]): 5 (Herbicidal ratio of 90% or more (almost completely withered)) | O: Chenopodium album, herbicidal effect (criteria of Test Example 1) (Chenopodium album [28]): 0 (Herbicidal ratio of 5% or lower (almost no effect)) | P: Stellaria media, herbicidal effect (criteria of Test Example 1) (Stellaria media [29]): 0 (Herbicidal ratio of 5% or lower (almost no effect)) | R: Veronica persica, herbicidal effect (criteria of Test Example 1) (Veronica persica [30]): 0 (Herbicidal ratio of 5% or lower (almost no effect)) | c: corn, effect on crop (criteria of Test Example 1) (corn [31]): 0 (Herbicidal ratio of 5% or lower (almost no effect)) | d: soybean, effect on crop (criteria of Test Example 1) (soybean [32]): 0 (Herbicidal ratio of 5% or lower (almost no effect)) | b: directly sowed rice plant, effect on crop (criteria of Test Example 1) (rice plant): 1 (Herbicidal ratio of 5% or higher and lower than 20%) | e: wheat, effect on crop (criteria of Test Example 1) (wheat [33]): 0 (Herbicidal ratio of 5% or lower (almost no effect)) | f: beet, effect on crop (criteria of Test Example 1) (beet [34]): 0 (Herbicidal ratio of 5% or lower (almost no effect)) | g: rapeseed, effect on crop (criteria of Test Example 1) (rapeseed [35]): 1 (Herbicidal ratio of 5% or higher and lower than 20%)
